pEC50, pIC50: −log10 of the molar value. Where a name gives a salt, the structure may show the parent alone. Read-outs that look alike come from different tables or passages of the source.
Columns and labels:
[1] = target: T1, Human 5-HT4 receptor (5-HT4b) (Homo sapiens, UniProt Q13639); experiment: Test Example 3: Human 5-HT4 receptor binding assay, membranes of CHO-K1 cells stably expressing 5-HT4b receptors (Table 99); settings: mean value of each group
T1 construct: expressed in transfected cells; membrane preparation
Experimental: To an assay tube were added 0.1 nM [^3H]-GR113808 {chemical name: [1-[2-(methylsulfonylamino) ethyl]-4-piperidinyl]methyl 1-methylindole-3-carboxylate}, receptor membrane preparations, and Hepes buffer (50 mM, pH 7.4, 4° C., 1 ml) containing test compounds or 30 μM serotonin; and the mixture was incubated at 37° C. for 30 minutes. On quenching the reaction, the mixture was rapidly filtered on whatman GF/B filter, which was presoaked in 0.1% polyethyleneimine for 1 hour, by using Brandel cell Harvester, and washed with ice-cooled 50 mM Tris-HCl (pH 7.7, 4 ml) three times. To the filter after filtration was added a liquid scintillator (Ecoscint), and then a radioactivity was determined by a liquid scintillation counter.
50% Inhibition concentrations (IC50) were determined from inhibition rates of test compounds to specific bindings which were obtained by subtracting nonspecific bindings from total binding amounts of [^3H]-GR113808.
Human 5-HT4 receptor membrane preparations were prepared from CHO-K^1 cells which stably express 5-HT4b receptors, and human 5-HT4 receptor binding assay was carried out in a similar manner as in the guinea pig 5-HT4 receptor binding assay. The following tables show results of serotonin 4 (5-HT4) receptor binding assay. In the following tables, the compounds used in the test are shown in numbers which correspond to the Example numbers above where the preparations of the compounds are described.

[2] = target: T2, human 5-HT4b receptor (Homo sapiens, UniProt Q13639); experiment: Test Example 4: Serotonin 4 (5-HT4) receptor agonist activity assay, cAMP HTRF in CHO cells (Table 100); type: cell-based; settings: mean value; for Emax: CHO, 0.25 h, intrinsic activity, maximal activity of 5-HT defined as 100%, read-out: IA (%); for pEC50: concentration showing 50% of IA
T2 construct: expressed in transfected cells; host or cells: CHO cells (G418 selection)
Experimental: The cAMP measurement test used herein was carried out by using CISBIO HTRF (trademark) cAMP Hirange kit according to the manufacturer's instructions attached therewith.
CHO cells expressing human 5-HT4b receptor were incubated in Medium 1 [DMEM/1% NEAA, 1% penicillin/streptomycin (P/S), 0.2 mg/mL GENETICIN (G418), 10% FBS] at 37° C. under 5% CO2 condition. Then, the cells were put into Medium 2 (DMEM/10000 cut FBS, G-418, P/S, NEAA) for 1 to 2 hours, and collected by treating with trypsin containing EDTA. The collected cells were suspended in Assay Buffer 1 [100 mM Hanks/HEPES buffer (pH 7.4)], the suspended cells were mixed with the testing compound on 384-well plates, and the cells were incubated at 31° C. for 15 minutes. To the cells were added cAMP-cryptate solution and cAMP-d2 solution, and they were incubated at room temperature for 1 hour. Then, time-resolved fluorescence was measured by En Vision (excitation wavelength: 330 nm, fluorescence wavelength: 620/665 nm).
An intrinsic activity of the compound [IA (%)] and a concentration showing 50% of IA [EC50 (nM)] were calculated from the obtained results. In particular, the intrinsic activity (IA) was calculated on the basis of the maximal activity of 5-HT (measured from 10^−11 M to 10^−7 M) defined as 100%.
In the following table, the compounds used in the test are shown in numbers which correspond to the Example numbers above where the preparations of the compounds are described.

[3] = target: T3, 5-HT4 receptor (Cavia porcellus, UniProt O70528); experiment: Test Example 3: Guinea pig 5-HT4 receptor binding assay, [3H]-GR113808, striatum membranes (Table 98)
T3 construct: striatum was isolated which was cryopreserved at −80° C. until use; from tissue; host or cells: guinea pig (Slc-Hartley) striatum membranes
How it was run: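 Striatal membranes from Slc-Hartley guinea pigs were incubated with 0.1 nM [3H]-GR113808 and test compounds in 50 mM Hepes pH 7.4 at 37° C for 30 min; nonspecific binding was defined with 30 μM serotonin. Bound radioactivity was collected by filtration, and IC50 was derived from inhibition of specific binding.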

[4] = Guinea pig 5-HT4 receptor binding assay, [3H]-GR113808, striatum membranes, mean value of each group, read-out: IC50

T2 sequence (Q13639 whole entry): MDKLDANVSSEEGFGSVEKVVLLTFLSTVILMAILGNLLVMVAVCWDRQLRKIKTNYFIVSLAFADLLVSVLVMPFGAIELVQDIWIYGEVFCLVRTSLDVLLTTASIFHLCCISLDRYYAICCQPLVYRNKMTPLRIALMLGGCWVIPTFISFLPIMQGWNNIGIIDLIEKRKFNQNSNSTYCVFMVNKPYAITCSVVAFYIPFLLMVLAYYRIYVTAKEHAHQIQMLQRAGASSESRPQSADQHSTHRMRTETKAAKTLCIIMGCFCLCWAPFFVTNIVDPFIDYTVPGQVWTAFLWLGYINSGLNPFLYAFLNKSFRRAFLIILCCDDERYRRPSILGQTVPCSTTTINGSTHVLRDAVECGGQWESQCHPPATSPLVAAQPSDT
T1 sequence (Q13639 whole entry): as above
T3 sequence (O70528 whole entry): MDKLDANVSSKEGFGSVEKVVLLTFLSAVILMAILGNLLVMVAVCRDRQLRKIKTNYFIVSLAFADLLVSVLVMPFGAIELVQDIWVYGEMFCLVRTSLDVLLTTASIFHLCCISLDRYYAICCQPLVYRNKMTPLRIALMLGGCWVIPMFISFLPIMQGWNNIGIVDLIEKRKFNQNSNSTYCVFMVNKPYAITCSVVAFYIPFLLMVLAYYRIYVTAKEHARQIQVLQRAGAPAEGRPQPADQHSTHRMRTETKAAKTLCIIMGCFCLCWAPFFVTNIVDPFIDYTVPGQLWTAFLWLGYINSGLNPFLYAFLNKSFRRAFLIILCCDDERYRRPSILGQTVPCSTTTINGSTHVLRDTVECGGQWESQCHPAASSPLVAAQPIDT

## CC(C)c1nn(-c2noc([C@H]3C[C@@H](NCCC4CCCCO4)C3)n2)c2c(F)cccc12 (relative stereo) [Example 597, cis-3-{3-[7-fluoro-3-(propan-2-yl)-1H-indazol-1-yl]-1,2,4-oxadiazol-5-yl}-N-[2-(tetrahydro-2H-pyran-2-yl)ethyl]cyclobutanamine]
[1]
  pIC50: 7.57

## CC(C)c1nn(-c2noc([C@H]3C[C@H](NCCC4CCCCO4)C3)n2)c2c(F)cccc12 (relative stereo) [Example 598, trans-3-{3-[7-fluoro-3-(propan-2-yl)-1H-indazol-1-yl]-1,2,4-oxadiazol-5-yl}-N-[2-(tetrahydro-2H-pyran-2-yl)ethyl]cyclobutanamine]
[1]
  pIC50: > 7.70

## CC(C)c1nn(-c2noc([C@H]3CC[C@H](NCC4CCCO4)CC3)n2)c2c(F)cccc12 (relative stereo) [Example 620, trans-4-{3-[7-fluoro-3-(propan-2-yl)-1H-indazol-1-yl]-1,2,4-oxadiazol-5-yl}-N-(tetrahydrofuran-2-ylmethyl)cyclohexanamine]
[1]
  pIC50: > 7.70

## CC(=O)N1CCCC(N[C@H]2CC[C@@H](c3nc(-n4nc(C(C)C)c5cccc(F)c54)no3)CC2)C1 (relative stereo) [Example 622, 1-{3-[(cis-4-{3-[7-fluoro-3-(propan-2-yl)-1H-indazol-1-yl]-1,2,4-oxadiazol-5-yl}cyclohexyl)amino]piperidin-1-yl}ethanone]
[1]
  pIC50: 6.91

## CC(C)c1nn(-c2noc([C@H]3CC[C@@H](NC4CCCOC4)CC3)n2)c2c(F)cccc12 (relative stereo) [Example 623, N-(cis-4-{3-[7-fluoro-3-(propan-2-yl)-1H-indazol-1-yl]-1,2,4-oxadiazol-5-yl}cyclohexyl)tetrahydro-2H-pyran-3-amine]
[1]
  pIC50: 6.98

## CC(C)c1nn(-c2noc(C3CCN(CCc4cccnc4)CC3)n2)c2c(F)cccc12 [Example 399, 7-fluoro-3-(propan-2-yl)-1-(5-{1-[2-(pyridin-3-yl)ethyl]piperidin-4-yl}-1,2,4-oxadiazol-3-yl)-1H-indazole]
[1]
  pIC50: 7.69

## CC(C)c1nn(-c2noc(C3CCN(C(C)(C)C(=O)OC(C)(C)C)CC3)n2)c2c(F)cccc12 [Example 400, tert-butyl 2-(4-{3-[7-fluoro-3-(propan-2-yl)-1H-indazol-1-yl]-1,2,4-oxadiazol-5-yl}piperidin-1-yl)-2-methylpropanoate]
[1]
  pIC50: 6.65

## CC(C)c1nn(-c2noc(C3CCN(C(C)(C)C(=O)O)CC3)n2)c2c(F)cccc12 [Example 401, 2-(4-{3-[7-fluoro-3-(propan-2-yl)-1H-indazol-1-yl]-1,2,4-oxadiazol-5-yl}piperidin-1-yl)-2-methylpropanoic acid hydrochloride]
[1]
  pIC50: 6.53

## CC(=O)N1CCC(N2CC(Cc3nc(-n4nc(C(C)C)c5cccc(F)c54)no3)C2)CC1 [Example 416]
[1]
  pIC50: 7.56

## COCC(=O)N1CCC(CN2CCC(c3nc(-n4nc(C(C)C)c5ccc(F)c(F)c54)no3)CC2)CC1 [Example 481, 1-{4-[(4-{3-[6,7-difluoro-3-(propan-2-yl)-1H-indazol-1-yl]-1,2,4-oxadiazol-5-yl}piperidin-1-yl)methyl]piperidin-1-yl}-2-methoxyethanone trifluoroacetate]
[2]
  Emax: 73.8%
  pEC50: 8.15
[3]; [4]
  pIC50: > 7.70

## COC(=O)N1CCC(CN2CCC(c3nc(-n4nc(C(C)C)c5ccc(F)c(F)c54)no3)CC2)CC1 [Example 482, methyl 4-[(4-{3-[6,7-difluoro-3-(propan-2-yl)-1H-indazol-1-yl]-1,2,4-oxadiazol-5-yl}piperidin-1-yl)methyl]piperidine-1-carboxylate trifluoroacetate]
[2]
  Emax: 70.5%
  pEC50: 8.05
[3]; [4]
  pIC50: 7.63

## CC(=O)N1CCC(N2CC[C@@H](Cc3nc(-n4nc(C(C)C)c5cccc(F)c54)no3)C2)CC1 [Example 507, 1-{4-[(3S)-3-({3-[7-fluoro-3-(propan-2-yl)-1H-indazol-1-yl]-1,2,4-oxadiazol-5-yl}methyl)pyrrolidin-1-yl]piperidin-1-yl}ethanone]
[2]
  Emax: 84%
  pEC50: 8.41
[3]; [4]
  pIC50: > 7.70

## CC(C)c1nn(-c2noc(C3CCN(C4CCN(C(=O)CO)CC4)CC3)n2)c2ccccc12 [Example 519]
[2]
  Emax: 81.1%
  pEC50: 7.47
[3]; [4]
  pIC50: 7.57

## CC(C)c1nn(-c2noc(C3CCN(C4CCN(C(=O)CO)CC4)CC3)n2)c2c(F)c(F)ccc12 [Example 520, 1-(4-{3-[6,7-difluoro-3-(propan-2-yl)-1H-indazol-1-yl]-1,2,4-oxadiazol-5-yl}-1,4′-bipiperidin-1′-yl)-2-hydroxyethanone]
[2]
  Emax: 82.9%
  pEC50: 7.75
[3]; [4]
  pIC50: > 7.70

## CC(C)c1nn(-c2noc(C3CCN(C[C@H]4CCCN4C(=O)CO)CC3)n2)c2c(F)cccc12 [Example 529, 1-{(2R)-2-[(4-{3-[7-fluoro-3-(propan-2-yl)-1H-indazol-1-yl]-1,2,4-oxadiazol-5-yl}piperidin-1-yl)methyl]pyrrolidin-1-yl}-2-hydroxyethanone hydrochloride]
[2]
  Emax: 95.5%
  pEC50: 8.92
[3]; [4]
  pIC50: > 7.70

## CC(C)c1nn(-c2noc(C3CCN(C4CCN(C(=O)CO)CC4C)CC3)n2)c2c(F)cccc12 (stereo not drawn) [Example 530, 1-(4-{3-[7-fluoro-3-(propan-2-yl)-1H-indazol-1-yl]-1,2,4-oxadiazol-5-yl}-3′-methyl-1,4′-bipiperidin-1′-yl)-2-hydroxyethanone]
[2]
  Emax: 97%
  pEC50: 8.51
[3]; [4]
  pIC50: > 7.70

## CC(C)c1nn(-c2noc(C3CCN([C@H]4C[C@H]5CC[C@@H](C4)N5C(=O)CO)CC3)n2)c2c(F)cccc12 [Example 532, 1-[(3-endo)-3-(4-{3-[7-fluoro-3-(propan-2-yl)-1H-indazol-1-yl]-1,2,4-oxadiazol-5-yl}piperidin-1-yl)-8-azabicyclo[3.2.1]oct-8-yl]-2-hydroxyethanone]
[2]
  Emax: 99%
  pEC50: 8.30
[3]
  pIC50: > 7.70

## CC(C)c1nn(-c2noc(C3CCN([C@@H]4C[C@H]5CC[C@@H](C4)N5C(=O)CO)CC3)n2)c2c(F)cccc12 [Example 533, 1-[(3-exo)-3-(4-{3-[7-fluoro-3-(propan-2-yl)-1H-indazol-1-yl]-1,2,4-oxadiazol-5-yl}piperidin-1-yl)-8-azabicyclo[3.2.1]oct-8-yl]-2-hydroxyethanone]
[2]
  Emax: 102%
  pEC50: 8.42
[3]
  pIC50: > 7.70

## CC(C)c1nn(-c2noc(C3(O)CCN(C4CCN(C(=O)CO)CC4)CC3)n2)c2c(F)cccc12 [Example 551, 1-(4-{3-[7-fluoro-3-(propan-2-yl)-1H-indazol-1-yl]-1,2,4-oxadiazol-5-yl}-4-hydroxy-1,4′-bipiperidin-1′-yl)-2-hydroxyethanone]
[2]
  Emax: 70.4%
  pEC50: 7.73
[3]
  pIC50: 7.09

## CCc1nn(-c2noc(C3CCN(C4CCN(C(=O)CO)CC4)CC3)n2)c2c(F)cccc12 [compound 244, hydrochloride]
[2]
  Emax: 63.5%
  pEC50: 8.41
[3]; [4]
  pIC50: > 7.70

## CCc1nn(-c2noc(C3CCN(CC4CCN(C(=O)CO)CC4)CC3)n2)c2c(F)cccc12 [compound 246, 1-[4-({4-[3-(3-ethyl-7-fluoro-1H-indazol-1-yl)-1,2,4-oxadiazol-5-yl]piperidin-1-yl}methyl)piperidin-1-yl]-2-hydroxyethanone]
[2]
  Emax: 56.6%
  pEC50: 7.68
[3]; [4]
  pIC50: > 7.70

## CCc1nn(-c2noc(C3CCN(CC4CN(C(=O)CO)C4)CC3)n2)c2c(F)cccc12 [compound 250, 1-[3-({4-[3-(3-ethyl-7-fluoro-1H-indazol-1-yl)-1,2,4-oxadiazol-5-yl]piperidin-1-yl}methyl)azetidin-1-yl]-2-hydroxyethanone]
[2]
  Emax: 79.7%
  pEC50: 8.46
[3]; [4]
  pIC50: > 7.70

Reference: US20140057895A1, “INDAZOLE- AND PYRROLOPYRIDINE-DERIVATIVE AND PHARMACEUTICAL USE THEREOF” (priority 2011, published 2014)
